Data on one molecule can be found in US12600724B2, “Indole alkaloid and preparation method and use thereof” (NANJING UNIVERSITY OF CHINESE MEDICINE, priority 2022, dated 2026).

In assay [1] the test system is type-2 diabetes model db/db mice. Kind of assay: Latent period of thermal pain, type-2 diabetes db/db mice. Type of assay: in vivo, BKS db/db mice. The settings on record: S26 46.8 mg/kg/day intragastric, Mean ± SD, n = 6. The protocol: Type-2 diabetes mice: male 18-week-old BKS db/db mice were purchased from Jiangsu Gempharmatech Biotechnology Co., Ltd. One week after adaptive feeding, the mice were divided into a control group (db/m mice), a model group (db/db mice) and a S26 administration group (46.8 mg/kg/day) respectively according to body weight and blood sugar, and administrated intragastrically for four weeks continuously. A response of an animal to infrared thermal stimulation was detected weekly by an infrared plantar pain threshold detector (37370, purchased from Ugo Basile Company) before and after administration to characterize a thermal pain sensitivity of the animal. A mouse was put into a single cage equipped for the machine in advance to adapt for 20 minutes, and then plantar thermal stimulation was carried out on the mouse. […] The thermal pain sensitivity was evaluated by comparing the thermal stimulation time.

Assay [2] has as its system DRG neurons of type-2 diabetes peripheral neuropathy model mice. As to the kind of experiment: Axon growth of DRG neuron cells taken after administration, type-2 mice. The format is in vivo, BKS db/db mice. The protocol:
(§1) Type-2 diabetes mice: male 18-week-old BKS db/db mice were purchased from Jiangsu Gempharmatech Biotechnology Co., Ltd. One week after adaptive feeding, the mice were divided into a control group (db/m mice), a model group (db/db mice) and a S26 administration group (46.8 mg/kg/day) respectively according to body weight and blood sugar, and administrated intragastrically for four weeks continuously. After administration, a fresh DRG neuron of a mouse was extracted to digest into a single-cell suspension and then inoculated into a culture plate for adherent culture overnight. A β-tubulin III (Sigma) protein of the DRG neuron cells was labeled by an immunofluorescence staining method. The protein was imaged by a fluorescence microscope (Leica), and a total axon length of a single DRG neuron cell was tracked by a Neuro J plug-in in Image J software.

The test system of assay [3] is DRG neurons of type-1 diabetes peripheral neuropathy model mice. As to the kind of experiment: Axon growth of DRG neuron cells taken after administration, type-1 mice. The format is in vivo, C57BL/6J mice. The protocol: as §1, with “Type-1” for “Type-2”, “8-week-old C57BL/6J” for “18-week-old BKS db/db”, “Beijing Vital River Laboratory Animal Technology” for “Jiangsu Gempharmatech Biotechnology”, “feeding, STZ (150 mg/kg) was injected intraperitoneally, and one week later, tail vein blood collection was carried out for blood sugar detection, and the mice with random blood sugar greater than 16 mmol/L were selected. Six weeks after STZ injection,” for “feeding,”, “(non-diabetic” for “(db/m”, “(DPN” for “(db/db”

In assay [4] the test system is type-2 diabetes model db/db mice. Kind of assay: 50% mechanical pain threshold (Von frey), type-2 diabetes db/db mice. Type of assay: in vivo, BKS db/db mice. The conditions noted are these: S26 46.8 mg/kg/day intragastric, Mean ± SD, n = 6. The protocol:
Type-2 diabetes mice: male 18-week-old BKS db/db mice were purchased from Jiangsu Gempharmatech Biotechnology Co., Ltd. One week after adaptive feeding, the mice were divided into a control group (db/m mice), a model group (db/db mice) and a S26 administration group (46.8 mg/kg/day) respectively according to body weight and blood sugar, and administrated intragastrically for four weeks continuously. This experiment was based on a principle that claws of rodents would have a withdrawal reflex under mechanical stimulation. A Von frey tactile measuring set was purchased from Ugo Basile Company, and Von frey filaments could provide 0.008 g to 300 g of stimulating force, wherein a thickness of the filaments determined a magnitude of the stimulating force. Specific experimental method: filaments with proper thicknesses were selected to vertically stimulate a skin, and the stimulating force was adjusted by replacing the filaments, until the filaments were bent. One mouse was tested for 6 times to determine a threshold, and a 50% mechanical pain threshold of the mouse was calculated according to 50% threshold=(10^(Xf+k δ))/10000, which was detected weekly before and after administration respectively.

The subject of assay [5] is bleomycin-induced pulmonary fibrosis mouse. As to the kind of experiment: Bleomycin-induced pulmonary fibrosis mouse, Micro-CT volume of normal lung tissue. Type of assay: in vivo, C57BL/6J mice. The conditions noted are these: for Volume of normal lung tissue: bleomycin 5 mg/kg model, S26 46.8 mg/kg intragastric, Mean ± SD, n = 4. An excerpt: In this experiment, the pulmonary fibrosis model was established by oral tracheal instilling of a bleomycin solution into the mouse, and then the compound S26 was administrated for treatment. A volume of a normal lung tissue of the mouse was quantified by carrying out CT photographing and three-dimensional reconstruction on a lung of the mouse to evaluate the influence of the vinpocetine derivative S26 on the degree of the bleomycin-induced pulmonary fibrosis of the mouse. Male 8-week-old C57BL/6J mice were purchased from Beijing Weitong Lihua Experimental Animal Technology Co., Ltd. One week after adaptive feeding, a lung development condition of the mouse was examined by micro-CT. The mice were divided into a blank control group (normal mice), a model group and a S26 administration group (46.8 mg/kg) according to a volume of a normal lung tissue. Subsequently, an inhalation anesthesia machine was used to carry out isoflurane inhalation to induce anesthesia. The mice in the model group and the administration group were given 5 mg/kg bleomycin solution through oral tracheal instilling to establish the pulmonary fibrosis model, while the mice in the control group were given the same volume of bleomycin solvent. The mice were administrated on day 8 after the establishment of the model, and were intragastrically administrated for 20 days continuously. Micro-CT imaging was carried out before the establishment of the model and on day 8, day 18 and day 28 after the establishment of the model to observe pulmonary fibrosis of the mice.

In the case of `CC[C@@]12C=C(C(=O)NCC(=O)OCCOCCOCCOCCO)n3c4c(c5ccccc53)CCN(CCC1)[C@H]42` [Compound S26], the “Latent period of thermal pain” value in assay [1] (week 0 of administration) is on record as 15.55 ± 2.29 ^ s; in assay [1] (week 1 of administration), 13.50 ± 2.05 ^ s; in assay [1] (week 2 of administration), 12.00 ± 2.28 s; in assay [1] (week 3 of administration), 8.62 ± 1.51 s; in assay [1] (week 4 of administration), 7.65 ± 1.30 s. The Total axon length in assay [2] (Type-2 db/db mice, DRG neurons extracted after four weeks of S26 46.8 mg/kg/day intragastric, Mean (SD in the cell below), n = 6) amounted to 6070.18 pixel; in assay [3] (Type-1 mice, DRG neurons extracted after four weeks of S26 46.8 mg/kg/day intragastric, Mean (SD in the cell below), n = 6), 6374.12 pixel. For the same molecule, the “Axon growth conditions of DRG neurons (in words, FIG. 1)” value in assay [2] (type-2 diabetes peripheral neuropathy model mice) and in assay [3] (type-1 diabetes peripheral neuropathy model mice) was “obviously improve” each time. Further, the “50% mechanical pain threshold” value in assay [4] (week 0 of administration) is recorded as 1.33 ± 0.56^ g; in assay [4] (week 1 of administration), 1.04 ± 0.55^ g; in assay [4] (week 2 of administration) it was 0.91 ± 0.37 g; in assay [4] (week 3 of administration), 0.72 ± 0.39 g; in assay [4] (week 4 of administration) it was 0.71 ± 0.42 g. Further, the “Volume of normal lung tissue” value in assay [5] (day 0 of administration (day 8 after model)) is 328.98 ± 34.15^ mm^3; in assay [5] (day 10 of administration (day 18 after model)), 486.71 ± 48.61^# mm^3; in assay [5] (day 20 of administration (day 28 after model)) it was 536.70 ± 58.44^## mm^3. The “Volume of the normal lung tissue (in words, FIG. 3)” value in assay [5] (pulmonary fibrosis model mouse) is “obviously increase”.
